Results as given in a compilation of properties of binary mixtures (doi:10.1016/j.molliq.2014.08.031).

Assay: xn = mol fraction of the nth substance listed
Settings: 101 kPa

CCCC[n+]1ccn(C)c1.CS(=O)(=O)[O-] + O
Settings | electrical conductivity [S/m] | viscosity [mPa·s]
313.15 K, x2 = 0.5596 | – | 26.8
313.15 K, x2 = 0.6542 | – | 17.83
313.15 K, x2 = 0.7015 | – | 14.43
313.15 K, x2 = 0.704 | 1.07 | –
313.15 K, x2 = 0.7495 | – | 11.11
313.15 K, x2 = 0.785 | 1.89 | –
313.15 K, x2 = 0.796 | 1.98 | –
313.15 K, x2 = 0.8016 | – | 8.17
313.15 K, x2 = 0.8521 | – | 5.48
313.15 K, x2 = 0.861 | 3.55 | –
313.15 K, x2 = 0.9254 | – | 2.67
313.15 K, x2 = 0.929 | 5.27 | –
313.15 K, x2 = 0.9503 | – | 1.854
313.15 K, x2 = 0.951 | 5.76 | –
313.15 K, x2 = 0.968 | 5.4 | –
313.15 K, x2 = 0.975 | – | 1.148
314.15 K, x1 = 0.004 | 1.61 | –
314.15 K, x1 = 0.008 | 2.86 | –
314.15 K, x1 = 0.019 | 4.58 | –
314.15 K, x2 = 0.704 | 1.1 | –
314.15 K, x2 = 0.785 | 1.96 | –
314.15 K, x2 = 0.796 | 2.04 | –
314.15 K, x2 = 0.861 | 3.71 | –
314.15 K, x2 = 0.929 | 5.42 | –
314.15 K, x2 = 0.951 | 5.97 | –
314.15 K, x2 = 0.968 | 5.53 | –
315.15 K, x1 = 0.004 | 1.64 | –
315.15 K, x1 = 0.008 | 2.91 | –
315.15 K, x1 = 0.019 | 4.65 | –
315.15 K, x2 = 0.704 | 1.14 | –
315.15 K, x2 = 0.785 | 2.02 | –
315.15 K, x2 = 0.796 | 2.11 | –
315.15 K, x2 = 0.861 | 3.75 | –
315.15 K, x2 = 0.892 | 4.58 | –
315.15 K, x2 = 0.929 | 5.54 | –
315.15 K, x2 = 0.951 | 6.11 | –
316.15 K, x1 = 0.004 | 1.67 | –
316.15 K, x1 = 0.008 | 2.97 | –
316.15 K, x1 = 0.019 | 4.73 | –
316.15 K, x2 = 0.704 | 1.18 | –
316.15 K, x2 = 0.796 | 2.17 | –
316.15 K, x2 = 0.861 | 3.84 | –
316.15 K, x2 = 0.892 | 4.75 | –
316.15 K, x2 = 0.929 | 5.63 | –
316.15 K, x2 = 0.968 | 5.71 | –
317.15 K, x1 = 0.008 | 3 | –
317.15 K, x1 = 0.019 | 4.82 | –
317.15 K, x2 = 0.704 | 1.22 | –
317.15 K, x2 = 0.785 | 2.1 | –
317.15 K, x2 = 0.796 | 2.22 | –
317.15 K, x2 = 0.861 | 3.94 | –
317.15 K, x2 = 0.892 | 4.86 | –
317.15 K, x2 = 0.929 | 5.78 | –
318.15 K, x1 = 0.004 | 1.72 | –
318.15 K, x1 = 0.008 | 3.06 | –
318.15 K, x1 = 0.019 | 4.92 | –
318.15 K, x2 = 0.704 | 1.27 | –
318.15 K, x2 = 0.785 | 2.15 | –
318.15 K, x2 = 0.796 | 2.29 | –
318.15 K, x2 = 0.861 | 4.05 | –
318.15 K, x2 = 0.892 | 4.99 | –
318.15 K, x2 = 0.951 | 6.37 | –
318.15 K, x2 = 0.968 | 5.94 | –
319.15 K, x1 = 0.004 | 1.76 | –
319.15 K, x1 = 0.008 | 3.11 | –
319.15 K, x1 = 0.019 | 5.07 | –
319.15 K, x2 = 0.785 | 2.21 | –
319.15 K, x2 = 0.796 | 2.35 | –
319.15 K, x2 = 0.892 | 5.12 | –
319.15 K, x2 = 0.929 | 6.06 | –
319.15 K, x2 = 0.951 | 6.73 | –
320.15 K, x1 = 0.008 | 3.17 | –
320.15 K, x2 = 0.785 | 2.28 | –
320.15 K, x2 = 0.796 | 2.4 | –
320.15 K, x2 = 0.861 | 4.25 | –
320.15 K, x2 = 0.929 | 6.2 | –
320.15 K, x2 = 0.951 | 6.7 | –
321.15 K, x1 = 0.004 | 1.82 | –
321.15 K, x1 = 0.008 | 3.21 | –
321.15 K, x1 = 0.019 | 5.2 | –
321.15 K, x2 = 0.704 | 1.39 | –
321.15 K, x2 = 0.785 | 2.36 | –
321.15 K, x2 = 0.861 | 4.38 | –
321.15 K, x2 = 0.892 | 5.35 | –
321.15 K, x2 = 0.929 | 6.32 | –
321.15 K, x2 = 0.951 | 6.78 | –
322.15 K, x1 = 0.004 | 1.85 | –
322.15 K, x1 = 0.008 | 3.28 | –
322.15 K, x1 = 0.019 | 5.28 | –
322.15 K, x2 = 0.785 | 2.44 | –
322.15 K, x2 = 0.861 | 4.47 | –
322.15 K, x2 = 0.951 | 6.94 | –
322.15 K, x2 = 0.968 | 6.41 | –
323.15 K, x1 = 0.004 | 1.88 | –
323.15 K, x1 = 0.008 | 3.33 | –
323.15 K, x1 = 0.019 | 5.4 | –
323.15 K, x2 = 0.5596 | – | 19
323.15 K, x2 = 0.6542 | – | 12.84
323.15 K, x2 = 0.7015 | – | 10.57
323.15 K, x2 = 0.704 | 1.49 | –
323.15 K, x2 = 0.7495 | – | 8.22
323.15 K, x2 = 0.796 | 2.62 | –
323.15 K, x2 = 0.8521 | – | 4.18
323.15 K, x2 = 0.861 | 4.6 | –
323.15 K, x2 = 0.892 | 5.62 | –
323.15 K, x2 = 0.9004 | – | 2.87
323.15 K, x2 = 0.9254 | – | 2.13
323.15 K, x2 = 0.929 | 6.51 | –
323.15 K, x2 = 0.968 | 6.56 | –
323.15 K, x2 = 0.975 | – | 0.939
324.15 K, x2 = 0.704 | 1.54 | –
324.15 K, x2 = 0.785 | 2.57 | –
324.15 K, x2 = 0.796 | 2.68 | –
324.15 K, x2 = 0.861 | 4.7 | –
324.15 K, x2 = 0.929 | 6.65 | –
324.15 K, x2 = 0.951 | 7.19 | –
324.15 K, x2 = 0.968 | 6.6 | –
325.15 K, x1 = 0.004 | 1.94 | –
325.15 K, x2 = 0.785 | 2.63 | –
325.15 K, x2 = 0.861 | 4.82 | –
325.15 K, x2 = 0.892 | 5.85 | –
325.15 K, x2 = 0.951 | 7.31 | –
325.15 K, x2 = 0.968 | 6.74 | –
326.15 K, x1 = 0.008 | 3.43 | –
326.15 K, x1 = 0.019 | 5.63 | –
326.15 K, x2 = 0.704 | 1.63 | –
326.15 K, x2 = 0.785 | 2.7 | –
326.15 K, x2 = 0.796 | 2.83 | –
326.15 K, x2 = 0.861 | 4.9 | –
326.15 K, x2 = 0.892 | 5.98 | –
327.15 K, x1 = 0.004 | 1.99 | –
327.15 K, x1 = 0.008 | 3.54 | –
327.15 K, x1 = 0.019 | 5.55 | –
327.15 K, x2 = 0.785 | 2.75 | –
327.15 K, x2 = 0.796 | 2.9 | –
327.15 K, x2 = 0.892 | 6.11 | –
327.15 K, x2 = 0.968 | 6.87 | –
328.15 K, x1 = 0.004 | 2.01 | –
328.15 K, x1 = 0.008 | 3.6 | –
328.15 K, x2 = 0.704 | 1.74 | –
328.15 K, x2 = 0.785 | 2.83 | –
